Measurements published in publication PMC12040169 (PLOS Biology, 2025).

Assay: in vitro
Settings: human, hela cells, % viability

| SMILES | viability at 28.5 h, 10 µM [%] |
| --- | --- |
| CCCC/C=C/c1nccnc1NCc1ccc(C(F)(F)F)cc1 [CBK038077] | 94.4 |
| Cc1cccc(CNc2nccnc2-c2cccc(N)c2)c1 [CBK038080] | 92.4 |
| OCCN1CCN(c2nccnc2-c2ccncc2)CC1 [CBK038084] | 89.2 |
| CCCC/C=C/c1cn2ccnc2c(Nc2ccc(OC)nc2)n1 [CBK038089] | 100 |
| CCCC/C=C/c1nccnc1NCc1cccs1 [CBK038090] | 101 |
| OCCCNc1nccnc1-c1ccccc1Cl [CBK038092] | 81.6 |
| COc1ccc([C@@]23CC[C@H](NC(=O)c4[nH]cnc4C)C[C@@H]2N(C)CC3)cc1OC [CBK038097] | 118 |
| O=S(=O)(Nc1cc(F)cc(C(F)(F)F)c1)c1cc2c(N3CCNCC3)nccc2s1 [CBK038102C] | 95.5 |
| CC(C)c1ccc(NS(=O)(=O)c2cc3c(N4CCNCC4)nccc3s2)cc1 [CBK038104C] | 91.4 |
| Cn1nc(C2CC2)cc1NS(C)(=O)=O [CBK038148] | 93.9 |
| CS(=O)(=O)Nc1nnc(C(F)(F)F)s1 [CBK038168] | 97.6 |
| COc1ccc([C@@]23CC[C@@H](NC(=O)CNc4ccc(Cl)c(Cl)c4)C[C@@H]2N(C)CC3)cc1OC [CBK038220] | 94.4 |
| COc1ccc([C@@]23CC[C@@H](NC(=O)Nc4ccc(Cl)c(C(F)(F)F)c4)C[C@@H]2N(C)CC3)cc1OC [CBK038224C] | 98.4 |
| COC12CCCC(C(=O)O)(CCC1)C2 [CBK038238] | 93.8 |
| CN(C)CCNc1nccc2sc(S(=O)(=O)NCCC3=CCCCC3)cc12 [CBK038244C] | 108 |
| COc1cc(CNS(=O)(=O)c2cc3c(NCCN(C)C)nccc3s2)cc(OC)c1OC [CBK038246C] | 91.8 |
| CC(=O)Oc1cc(C)cc(C#N)c1 [CBK038296] | 87.6 |
| CC1(C)OCC2(CCN(C(C)(C)C)CC2)O1 [CBK038298] | 93.2 |
| [O-][S+](c1ccc(Cl)c(Cl)c1)c1cc2c(N3CCCNCC3)nccc2s1 (stereo not drawn) [CBK038304C] | 71.2 |
| C=CCN(c1ccccc1)S(=O)(=O)c1ccc(Br)cc1CC [CBK038344] | 95.8 |
| COc1ccc(C(F)(F)F)cc1N [CBK038366] | 89.6 |
| OC1CCN(c2nccc(C(F)(F)F)n2)CC1 [CBK038372] | 92.1 |

| SMILES | viability at 28.5 h, 10 µM [%] |
| --- | --- |
| CC(C)(C)c1ccc(S(=O)(=O)N2CCC3(CC2)OCCO3)cc1 [CBK038429] | 111 |
| CC(C)(C)CC(C)(C)NC(=O)NCCc1cccs1 [CBK038697] | 91.8 |
| CC(=O)Nc1cccc(C(=O)O)c1Cl [CBK038814] | 94.1 |
| COc1ccc([C@@]23CC[C@@H](NC(=O)Nc4cccc5nsnc45)C[C@@H]2N(C)CC3)cc1OC [CBK038874T] | 86.8 |
| CC(C)c1nsc(NS(=O)(=O)c2cccc(C(F)(F)F)c2)n1 [CBK038881] | 98.3 |
| O=C(O)c1cccc(NS(=O)(=O)Cc2ccccc2)c1 [CBK038894] | 96.4 |
| O=C(O)c1cccc(NS(=O)(=O)Cc2ccccc2[N+](=O)[O-])c1 [CBK038906] | 97.8 |
| COc1ccc(/C=C(\C)C(=O)NCc2ccc(OC3CCNCC3)cc2)cc1OC [CBK038914T] | 90.9 |
| Cc1oc(-c2ccccc2)cc1C(=O)NCc1ccc(OC2CCNCC2)cc1 [CBK038915T] | 108 |
| O=C(/C=C/c1cccnc1)Nc1cncc(OC2CCNCC2)n1 [CBK038919T] | 96.9 |
| CC1(C)CC(=O)C=C(C(=O)Nc2cncc(OC3CCNCC3)n2)O1 [CBK038922T] | 103 |
| CC1(C)CC(=O)C=C(C(=O)Nc2ccccc2N2CCCNCC2)O1 [CBK038935T] | 112 |
| Cc1oc(-c2ccccc2)cc1C(=O)Nc1cc2ccccc2c(N2CCNCC2)n1 [CBK038938T] | 104 |
| O=C(NCc1ccc(OC2CCNCC2)cc1)c1coc2c1C(=O)CCC2 [CBK038944T] | 101 |
| O=C(/C=C/c1cccnc1)NCc1ccc(OC2CCNCC2)cc1 [CBK038945T] | 88.7 |
| CC1(C)CC(=O)C=C(C(=O)NCc2ccc(OC3CCNCC3)cc2)O1 [CBK038948T] | 96.1 |
| COc1cccc(CS(=O)(=O)c2c(Br)sc3ccnc(N4CCNCC4)c23)c1 [CBK038956C] | 95.1 |
| CN1CCN(C(=O)c2cccc(NS(=O)(=O)c3cc(Cl)sc3Cl)c2)CC1 [CBK038966] | 96.2 |
| Cc1noc(C)c1S(=O)(=O)Nc1cccc(C(=O)N2CCN(C)CC2)c1 [CBK038972] | 101 |
| CCCc1ccc(S(=O)(=O)Nc2cccc(C(=O)Nc3ccc(F)cc3)c2)cc1 [CBK038978] | 97.4 |
| CCN(CC)C(=O)c1cccc(NS(=O)(=O)c2cccc3cccnc23)c1 [CBK038999] | 66.5 |
| COC(=O)c1ccsc1NS(=O)(=O)c1ccc(Br)cc1 [CBK039058] | 94.1 |

| SMILES | viability at 28.5 h, 10 µM [%] |
| --- | --- |
| COC(=O)c1ccsc1NS(=O)(=O)c1ccc(NC(C)=O)cc1 [CBK039063] | 87.7 |
| COC(=O)c1ccsc1NS(=O)(=O)Cc1ccccc1 [CBK039067] | 108 |
| Cc1ccc(C(=O)N2CCCN(C(=O)CN3CCCC3)C2)cc1 [CBK039081] | 87.2 |
| Cc1ccc(C(=O)N2CCN(CC(=O)N3CCCC3)CC2)cc1 [CBK039096] | 110 |
| NC1=NC(=O)C(CC(=O)Nc2ccccc2Cl)S1 (stereo not drawn) [CBK039145] | 99.1 |
| OCCOc1cccnc1OCCN1CCCC1 [CBK039174] | 85.3 |
| CN1CCCC1CCOc1ncccc1OCCO (stereo not drawn) [CBK039176] | 118 |
| COc1cc([C@@]23CC[C@@H](NC(=O)Nc4cccc(Cl)c4)C[C@@H]2N(C)CC3)cc(OC)c1OC [CBK039212] | 93.7 |
| COc1ccc2[nH]c3c(c2c1)CCNC31CCCN(CCc2ccc(F)cc2)C1 (stereo not drawn) [CBK039246] | 90.9 |
| Cc1cccc(CCN2CCC3(CC2)NCCc2c3[nH]c3ccc(Br)cc23)c1 [CBK039280] | 83.3 |
| Cc1ccc2[nH]cc(CCN3CCC4(CC3)NCCc3c4[nH]c4ccc(OCc5ccccc5)cc34)c2c1 [CBK039342] | 91.8 |
| COc1ccc2[nH]c3c(c2c1)CCNC31CCN(Cc2cc(F)cc(F)c2)C1 (stereo not drawn) [CBK039368] | 81.9 |
| O=C1Cc2c(ccc3ccccc23)C2(CCN(CC3CCCCO3)CC2)N1 (stereo not drawn) [CBK039395] | 98.8 |
| Cc1ccc(C(=O)CN2CCC3(CC2)NCCc2c3[nH]c3ccc(F)cc23)cc1 [CBK039503] | 107 |
| Cc1cccc2c3c([nH]c12)C1(CCN(CC2CC2)C1)NCC3 (stereo not drawn) [CBK039520] | 95.8 |
| Cc1ccc2[nH]c3c(c2c1)CCNC31CCN(CC2CCCCO2)CC1 (stereo not drawn) [CBK039545] | 103 |
| Cc1ccc(C(=O)CN2CCCC3(C2)NCCc2c3[nH]c3c(C)cccc23)cc1 (stereo not drawn) [CBK039546] | 96 |
| Cc1cccc2c3c([nH]c12)C1(CCCN(CCc2ccc([N+](=O)[O-])cc2)C1)NCC3 (stereo not drawn) [CBK039558] | 92.4 |
| O=CN1CCc2c([nH]c3ccccc23)C12CCCN(Cc1ccc(C(F)(F)F)cc1)C2 (stereo not drawn) [CBK039587] | 92.6 |
| COc1cccc(CN2CCC3(C2)c2[nH]c4c(C)cccc4c2CCN3C(C)=O)c1 (stereo not drawn) [CBK039662] | 84.9 |
| CC(=O)N1CCc2c([nH]c3ccccc23)C12CCCN(CCC#N)C2 (stereo not drawn) [CBK039665] | 91.6 |
| CC(=O)N1CCc2c([nH]c3cc(F)ccc23)C12CCN(CCC#N)CC2 [CBK039692] | 95.7 |

| SMILES | viability at 28.5 h, 10 µM [%] |
| --- | --- |
| CC(=O)N1CCc2c([nH]c3c(C)cccc23)C12CCCN(CCCC#N)C2 (stereo not drawn) [CBK039705] | 104 |
| CC(=O)N1CCc2c([nH]c3ccc(Br)cc23)C12CCN(CCCC#N)CC2 [CBK039724] | 83.2 |
| Cc1cccc2c3c([nH]c12)C1(CCN(CCCC#N)CC1)NCC3 [CBK039818] | 90.8 |
| Cc1cccc2c1CC(=O)NC21CCN(Cc2ccccc2)CC1 [CBK039819] | 87 |
| COc1ccc2c(c1)CC(=O)NC21CCN(CCCCC(C)C)CC1 [CBK039839] | 95.3 |
| Fc1ccc2c3c([nH]c2c1)C1(CCN(CCCOCc2ccccc2)CC1)NCC3 [CBK039858] | 92.7 |
| COc1cc2c(cc1OC)C1(CCN(CCCC(F)(F)F)CC1)NC(=O)C2 [CBK039859] | 97.9 |
| c1ccc(COc2ccc3[nH]c4c(c3c2)CCNC42CCN(Cc3ccccc3-c3ccccc3)C2)cc1 (stereo not drawn) [CBK039909] | 73.9 |
| Cc1cccc2c1CC(=O)NC21CCN(CC(=O)c2ccc(F)cc2)CC1 [CBK039946] | 96 |
| Cn1c2c(c3ccccc31)CCOC21CCN(Cc2ccc(OC(F)F)cc2)CC1 [CBK039975] | 95.8 |
| O=C1Cc2cc3ccccc3cc2C2(CCN(CCC(F)=C(F)F)CC2)N1 [CBK040033] | 94.6 |
| COc1cccc2c3c([nH]c12)C1(CCN(CCc2scnc2C)CC1)NCC3 [CBK040058] | 89 |
| CC(c1nc2ccccc2[nH]1)N1CCC2(CC1)NCCc1c2[nH]c2ccccc12 (stereo not drawn) [CBK040061] | 90.3 |
| FC(F)(F)c1ccc(CN2CCCC3(C2)NCCc2c3[nH]c3ccccc23)cc1 (stereo not drawn) [CBK040095] | 94.2 |
| COc1ccc2[nH]c3c(c2c1)CCNC31CCN(CCC2CCCCC2)C1 (stereo not drawn) [CBK040111T] | 90.7 |
| COc1ccc2[nH]c3c(c2c1)CCOC31CCN(CCC(F)=C(F)F)CC1 [CBK040118] | 103 |
| c1csc(CCN2CCC3(CC2)OCCc2c3[nH]c3ccccc23)c1 [CBK040156] | 87.1 |
| Cc1ccc2c(c1)C1(CCN(C/C=C\c3ccccc3)CC1)NC(=O)C2 [CBK040216] | 94.1 |
| COCCOCCCN1CCC2(CC1)NC(=O)Cc1ccc(C)cc12 [CBK040222] | 109 |
| CC(C)(C)C(=O)CN1CCC2(CC1)OCCc1c2[nH]c2ccc(F)cc12 [CBK040237] | 95.8 |
| COC(=O)c1cccc(CN2CCC3(CC2)OCCc2c3[nH]c3ccc(F)cc23)c1 [CBK040326] | 100 |
